Here are results for 3 molecules from ChEMBL document CHEMBL1157656, “Fragment-based deconstruction of Bcl-xL inhibitors” (J Med Chem, 2010).

What is called pKd is the negative decadic logarithm of the Kd, by convention in mol/L. By pIC50 is commonly meant the negative decadic logarithm of the IC50, by convention in mol/L. Read a high pIC50 as a small IC50.

pIC50, pKd: −log10 of the molar value. Structures can show the parent of a compound that is named as a salt.

Assay [1] concerns the target T1, Bcl-2-like protein 1 (Homo sapiens, UniProt Q07817). The assay is described as follows: Binding affinity to 6xHis-tagged human Bcl-xL.
In assay [2] the target is T1, Bcl-2-like protein 1. The assay can be described thus: Inhibition of Bcl-xL.
In assay [3] the target is T1, Bcl-2-like protein 1. The assay can be described thus: Inhibition of Bcl-xL expressed in Saccharomyces cerevisiae.

T1 sequence (Q07817 whole entry): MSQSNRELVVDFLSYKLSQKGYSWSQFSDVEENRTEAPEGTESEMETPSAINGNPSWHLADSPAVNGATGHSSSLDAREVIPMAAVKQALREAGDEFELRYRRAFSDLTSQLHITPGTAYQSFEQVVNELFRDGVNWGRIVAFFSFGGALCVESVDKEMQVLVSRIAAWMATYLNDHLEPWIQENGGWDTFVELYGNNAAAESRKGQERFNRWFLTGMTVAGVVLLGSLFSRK

On Bcl-2-like protein 1 [1], `Oc1ccccc1-c1ccccc1` [2-PHENYLPHENOL] gave a pKd of 2.57.

In turn, `Cc1cc2c(C(C)C)c(O)c(O)c(C=O)c2c(O)c1-c1c(C)cc2c(C(C)C)c(O)c(O)c(C=O)c2c1O` [GOSSYPOL] showed a pIC50 against Bcl-2-like protein 1 [2] of 6.32.

Molecule `COC1=CC(c2cc3ccccc3[nH]2)=N/C1=C\c1[nH]c(C)cc1C` [OBATOCLAX MESYLATE] gave a pIC50 against Bcl-2-like protein 1 [3] of 5.33.
